What was measured:
SK-OV-3 = assay: NCI-60 anticancer screen (SRB; single dose and five doses); conditions: Homo sapiens
NCI-H322M = assay: as above; conditions: Homo sapiens
A549/ATCC = assay: as above; conditions: Homo sapiens
NCI-H226 = assay: as above; conditions: Homo sapiens
SNB-75 = assay: as above; conditions: Homo sapiens, SNB-75, 48 h, read-out: Growth Percentage
BT-549 = assay: as above; conditions: Homo sapiens
SK-MEL-2 = assay: as above; conditions: Homo sapiens
TK-10 = assay: as above; conditions: Homo sapiens
OVCAR-4 = assay: as above; conditions: Homo sapiens
RXF 393 = assay: as above; conditions: Homo sapiens
SNB-19 = assay: cells; conditions: Homo sapiens
U251 = assay: NCI-60 anticancer screen (SRB; single dose and five doses); conditions: Homo sapiens
HS 578T = assay: as above; conditions: Homo sapiens
UO-31 = assay: as above; conditions: Homo sapiens
SW-620 = assay: as above; conditions: Homo sapiens
786-0 = assay: as above; conditions: Homo sapiens
HOP-62 = assay: as above; conditions: Homo sapiens
MDA-MB-435 = assay: as above; conditions: Homo sapiens
SF-539 = assay: as above; conditions: Homo sapiens
MALME-3M = assay: as above; conditions: Homo sapiens
M14 = assay: as above; conditions: Homo sapiens
NCI-H522 = assay: as above; conditions: Homo sapiens
MDA-MB-231/ATCC = assay: as above; conditions: Homo sapiens
SR = assay: as above; conditions: Homo sapiens
HCT-15 = assay: as above; conditions: Homo sapiens
SF-268 = assay: as above; conditions: Homo sapiens
RPMI-8226 = assay: as above; conditions: Homo sapiens
OVCAR-3 = assay: cells; conditions: Homo sapiens
CAKI-1 = assay: NCI-60 anticancer screen (SRB; single dose and five doses); conditions: Homo sapiens
[1] = 48 h, read-out: Growth Percentage

Compound `Cc1[nH]c(=S)sc1C(=O)/C=C/c1ccc(F)cc1` [2c, (E)-3-(4-Fluorophenyl)-1-(4-Methyl-2-Thioxo-2,3-Dihydrothiazol-5-yl)Prop-2-En-1-One] has a GI50 (SK-OV-3; SK-OV-3) of 11 µM, a CC50 (SK-OV-3; SK-OV-3, read-out: LC50) of 61.8 µM and an IC (TGI) (SK-OV-3; SK-OV-3, read-out: TGI) of 26.1 µM. It also gave a GI50 (NCI-H322M) of 4.1 µM, an activity at 10 µM (NCI-H322M; [1]) of 64% and a CC50 (NCI-H322M; read-out: LC50) of 44.8 µM. For the same compound, the IC (TGI) (NCI-H322M; read-out: TGI) was 17.9 µM, the GI50 (A549/ATCC; A549) was 12.4 µM and the activity at 10 µM (A549/ATCC; A549, 48 h, read-out: Growth Percentage) was 56%. For the same compound, the CC50 (A549/ATCC; A549, read-out: LC50) was 57.7 µM, the IC (TGI) (A549/ATCC; A549, read-out: TGI) was 26.8 µM and the GI50 (NCI-H226; NCI-H226) was 5.27 µM. For the same compound, the activity at 10 µM (NCI-H226; NCI-H226, 48 h, read-out: Growth Percentage) was 67.1%, the CC50 (NCI-H226; NCI-H226, read-out: LC50) was greater than 100 µM and the IC (TGI) (NCI-H226; NCI-H226, read-out: TGI) was 27.6 µM. The activity at 10 µM (SNB-75) was 36.5%, the GI50 (BT-549; BT-549) was 2.34 µM and the activity at 10 µM (BT-549; BT-549, 48 h, read-out: Growth Percentage) was 23.2%. The IC (TGI) (BT-549; BT-549, read-out: TGI) was 8.27 µM, the GI50 (SK-MEL-2; SK-MEL-2) was 11.6 µM and the activity at 10 µM (SK-MEL-2; SK-MEL-2, 48 h, read-out: Growth Percentage) was 56.6%. For the same compound, the CC50 (SK-MEL-2; SK-MEL-2, read-out: LC50) was 50.1 µM, the IC (TGI) (SK-MEL-2; SK-MEL-2, read-out: TGI) was 24.1 µM and the GI50 (TK-10; TK-10) was 12.5 µM. It also gave an activity at 10 µM (TK-10; TK-10, 48 h, read-out: Growth Percentage) of 40.4%, a CC50 (TK-10; TK-10, read-out: LC50) of 50.7 µM and an IC (TGI) (TK-10; TK-10, read-out: TGI) of 25.2 µM. It also gave a GI50 (OVCAR-4; OVCAR-4) of 6.03 µM, an activity at 10 µM (OVCAR-4; OVCAR-4, 48 h, read-out: Growth Percentage) of 48.4% and a CC50 (OVCAR-4; OVCAR-4, read-out: LC50) of 44.7 µM. It also gave an IC (TGI) (OVCAR-4; OVCAR-4, read-out: TGI) of 19.6 µM, a GI50 (RXF 393; RXF 393) of 3.02 µM and an activity at 10 µM (RXF 393; RXF 393, 48 h, read-out: Growth Percentage) of 23.2%. For the same compound, the CC50 (RXF 393; RXF 393, read-out: LC50) was 37.2 µM, the IC (TGI) (RXF 393; RXF 393, read-out: TGI) was 13 µM and the GI50 (SNB-19; SNB-19) was 4.87 µM. It also gave an activity at 10 µM (SNB-19; SNB-19, 48 h, read-out: Growth Percentage) of 33.7%, a CC50 (SNB-19; SNB-19, read-out: LC50) of 43.1 µM and an IC (TGI) (SNB-19; SNB-19, read-out: TGI) of 17.8 µM. It also gave a GI50 (U251; U-251) of 3.63 µM, an activity at 10 µM (U251; U-251, 48 h, read-out: Growth Percentage) of 14.1% and a CC50 (U251; U-251, read-out: LC50) of 41.9 µM. The IC (TGI) (U251; U-251, read-out: TGI) was 15.1 µM, the GI50 (HS 578T) was 13.2 µM and the activity at 10 µM (HS 578T; [1]) was 95.3%. The CC50 (HS 578T; read-out: LC50) was greater than 100 µM, the IC (TGI) (HS 578T; read-out: TGI) was 40.2 µM and the GI50 (UO-31; UO-31) was 2.88 µM. The activity at 10 µM (UO-31; UO-31, 48 h, read-out: Growth Percentage) was 28.1%, the IC (TGI) (UO-31; UO-31, read-out: TGI) was 15.7 µM and the GI50 (SW-620; SW-620) was 3.37 µM. The activity at 10 µM (SW-620; SW-620, 48 h, read-out: Growth Percentage) was 13.8%, the CC50 (SW-620; SW-620, read-out: LC50) was 49.3 µM and the IC (TGI) (SW-620; SW-620, read-out: TGI) was 15 µM. The GI50 (786-0; 786-0) was 4.59 µM, the activity at 10 µM (786-0; 786-0, 48 h, read-out: Growth Percentage) was 37.3% and the CC50 (786-0; 786-0, read-out: LC50) was 47.1 µM. For the same compound, the IC (TGI) (786-0; 786-0, read-out: TGI) was 17.6 µM, the GI50 (HOP-62; HOP-62) was 3.83 µM and the CC50 (HOP-62; HOP-62, read-out: LC50) was 48.7 µM. For the same compound, the IC (TGI) (HOP-62; HOP-62, read-out: TGI) was 16.2 µM, the GI50 (MDA-MB-435; MDA-MB-435) was 4.24 µM and the activity at 10 µM (MDA-MB-435; MDA-MB-435, 48 h, read-out: Growth Percentage) was 4.67%. For the same compound, the CC50 (MDA-MB-435; MDA-MB-435, read-out: LC50) was 48.7 µM, the IC (TGI) (MDA-MB-435; MDA-MB-435, read-out: TGI) was 17.5 µM and the GI50 (SF-539; SF-539) was 2.94 µM. The activity at 10 µM (SF-539; SF-539, 48 h, read-out: Growth Percentage) was -4.61%, the IC (TGI) (SF-539; SF-539, read-out: TGI) was 10.8 µM and the GI50 (MALME-3M) was 12.4 µM. The activity at 10 µM (MALME-3M; [1]) was 85.8%, the CC50 (MALME-3M; read-out: LC50) was 60.9 µM and the IC (TGI) (MALME-3M; read-out: TGI) was 27.5 µM. It also gave a GI50 (M14; M14) of 6.97 µM, an activity at 10 µM (M14; M14, 48 h, read-out: Growth Percentage) of 49.6% and an IC (TGI) (M14; M14, read-out: TGI) of 22.2 µM. For the same compound, the GI50 (NCI-H522; NCI-H522) was 8.63 µM, the activity at 10 µM (NCI-H522; NCI-H522, 48 h, read-out: Growth Percentage) was 44.2% and the CC50 (NCI-H522; NCI-H522, read-out: LC50) was 46.8 µM. The IC (TGI) (NCI-H522; NCI-H522, read-out: TGI) was 21.2 µM, the GI50 (MDA-MB-231/ATCC; MDA-MB-231) was 15.7 µM and the activity at 10 µM (MDA-MB-231/ATCC; MDA-MB-231, 48 h, read-out: Growth Percentage) was 29.7%. For the same compound, the CC50 (MDA-MB-231/ATCC; MDA-MB-231, read-out: LC50) was 66.1 µM, the IC (TGI) (MDA-MB-231/ATCC; MDA-MB-231, read-out: TGI) was 32.2 µM and the GI50 (SR) was 3.19 µM. The activity at 10 µM (SR; [1]) was 18.3%, the CC50 (SR; read-out: LC50) was greater than 100 µM and the IC (TGI) (SR; read-out: TGI) was greater than 100 µM. For the same compound, the GI50 (HCT-15; HCT-15) was 3.27 µM, the activity at 10 µM (HCT-15; HCT-15, 48 h, read-out: Growth Percentage) was 14.7% and the CC50 (HCT-15; HCT-15, read-out: LC50) was 43.7 µM. The IC (TGI) (HCT-15; HCT-15, read-out: TGI) was 14.2 µM, the GI50 (SF-268; SF-268) was 13 µM and the activity at 10 µM (SF-268; SF-268, 48 h, read-out: Growth Percentage) was 58.6%. It also gave a CC50 (SF-268; SF-268, read-out: LC50) of 63.1 µM, an IC (TGI) (SF-268; SF-268, read-out: TGI) of 28.7 µM and a GI50 (RPMI-8226; RPMI-8226) of 2.85 µM. For the same compound, the activity at 10 µM (RPMI-8226; RPMI-8226, 48 h, read-out: Growth Percentage) was 2.32%, the CC50 (RPMI-8226; RPMI-8226, read-out: LC50) was greater than 100 µM and the IC (TGI) (RPMI-8226; RPMI-8226, read-out: TGI) was greater than 100 µM. The GI50 (OVCAR-3; OVCAR-3) was 2.42 µM, the activity at 10 µM (OVCAR-3; OVCAR-3, 48 h, read-out: Growth Percentage) was -10.9% and the CC50 (OVCAR-3; OVCAR-3, read-out: LC50) was 24.5 µM. For the same compound, the IC (TGI) (OVCAR-3; OVCAR-3, read-out: TGI) was 6.81 µM, the GI50 (CAKI-1; CAKI-1) was 6.89 µM and the activity at 10 µM (CAKI-1; CAKI-1, 48 h, read-out: Growth Percentage) was 31.6%. For the same compound, the CC50 (CAKI-1; CAKI-1, read-out: LC50) was 45.4 µM and the IC (TGI) (CAKI-1; CAKI-1, read-out: TGI) was 20.2 µM.

Reference: paper PMC11435058, “Synthesis of New Thiazole-Privileged Chalcones as Tubulin Polymerization Inhibitors with Potential Anticancer Activities” (Pharmaceuticals, 2024)
